# Laboratory results published in patent US8075916B2, “Poly(organophosphazene) hydrogels for drug delivery, preparation method thereof and use thereof” (Korea Institute of Science and Technology, priority 2007, dated 2011).
# Experiments:
# [1] = molecular target: T1, albumin (Bovine Serum Albumin; BSA) (Bos taurus, UniProt P02769); assay: Formation of ionic bond between additives and protein drug (polyacrylamide gel electrophoresis); type: binding; details: additive 0.02, 0.1, 1 and 2 mg/ml in 0.01% albumin solution
# T1 construct: 0.01% albumin solution (Bovine Serum Albumin; BSA, Wako chemical); purchased Wako chemical
# Method: In order to confirm the formation of an ion bond between the additives and drugs, gel electrophoresis was conducted. […] BSA, Wako chemical) at various concentrations (0.02, 0.1, 1 and 2 mg/ml) and sufficiently stirred.
# [2] = pH 7.4
# [3] = system: Stomach cancer cells, SNU-601; assay: In vivo anti-cancer activity of hydrogel containing paclitaxel in nude mouse tumour model; details: 60 mg/kg, day 10 after administration, ten mice per group
# Method: A nude mouse (Oriental Bio, Balb/C, female of 5-weeks old, 20 g) was used as an animal model for animal experimentation for an in vivo test. Stomach cancer cells, SNU-601 (1×10^7 cells, 0.2 ml, Korean Cell Line Bank), were injected into the dorsum of the mouse. […] 0.2 ml of the solution was injected into the cancer cells, and the change in the size of the cells was measured. […] Each test was conducted for ten (10) mice for each of the control groups and the experimental groups.
# T1 sequence (P02769 25-607): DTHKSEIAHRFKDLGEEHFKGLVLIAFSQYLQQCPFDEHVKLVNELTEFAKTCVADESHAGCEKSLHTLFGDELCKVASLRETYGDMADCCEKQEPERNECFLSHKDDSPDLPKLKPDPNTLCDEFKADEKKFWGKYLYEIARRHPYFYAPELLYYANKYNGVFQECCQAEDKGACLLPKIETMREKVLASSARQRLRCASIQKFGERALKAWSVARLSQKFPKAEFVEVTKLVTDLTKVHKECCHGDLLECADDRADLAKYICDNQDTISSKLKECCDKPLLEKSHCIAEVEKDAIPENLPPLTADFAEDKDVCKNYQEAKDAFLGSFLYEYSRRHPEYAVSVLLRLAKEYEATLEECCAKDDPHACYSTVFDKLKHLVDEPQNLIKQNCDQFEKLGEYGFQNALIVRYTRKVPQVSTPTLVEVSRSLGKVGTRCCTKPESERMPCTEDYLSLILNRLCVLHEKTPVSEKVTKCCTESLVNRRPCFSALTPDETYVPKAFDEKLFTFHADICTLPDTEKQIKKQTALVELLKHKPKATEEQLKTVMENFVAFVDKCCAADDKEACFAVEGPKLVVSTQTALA
Max. gelling temp. [2],Molecule,further results
37 °C,poly[(isoleucine ethyl ester)(aminomethoxy polyethylene glycol 550)(aminoethylsuccinate)phosphazene] [Example 18],
46 °C,poly[(isoleucine ethyl-ester)(aminomethoxy polyethylene glycol 550)(glycylleucine)phosphazene] [Example 9],

# The remaining lines, values behind:
Molecule,Max. gelling temp. [2],further results
protamine,,ionic bond with albumin: development on polyacrylamide gel [1]: worse development property of the gel as the concentration of the additive is higher
poly[(isoleucine ethyl ester) (aminomethoxy polyethylene glycol 550)(aminoethylsuccinate)(aminoethylsuccinate ethylene hyaluronic acid)phosphazene] [Example 22],38 °C,
CC(=O)O[C@H]1C(=O)[C@@]2(C)[C@H]([C@H](OC(=O)c3ccccc3)[C@]3(O)C[C@H](OC(=O)[C@H](O)[C@@H](NC(=O)c4ccccc4)c4ccccc4)C(C)=C1C3(C)C)[C@]1(OC(C)=O)CO[C@@H]1C[C@@H]2O [paclitaxel],,mice died due to toxicity [3]: 8 mice
